From patent publication US8609708B2 (Human BioMolecular Research Institute, priority 2003, dated 2013)
Where two headings read alike, the source gives them in different places.

Assays:
[1] = biological target: CYP2C19 (Homo sapiens (Human), UniProt P33261); experiment: CYP2C19 Vivid blue substrate O-dealkylation inhibition; type: biochemical
[2] = biological target: CYP3A4 (Homo sapiens (Human), UniProt P08684); experiment: in vitro
[3] = biological target: Ach binding protein (AchBP) (Lymnaea stagnalis (Great pond snail) (Helix stagnalis), UniProt P58154); conditions: for binding to the AchBP (in words): fluorescence quenching; for AchBP: intrinsic fluorescence quenching, 20 nM AchBP
From the text: To examine the degree of interaction with the nicotinic acetylcholine receptor, we examined the binding interaction of the synthetic inhibitors with the Ach binding protein (AchBP) from the fresh water snail (Table 3).

[4] = biological target: Microsomal Human CYP2A6 (Homo sapiens (Human), UniProt P11509); experiment: Microsomal human CYP2A6-mediated nicotine oxidase activity
Procedure: For each determination, cold microsomes (of predetermined CYP2A6 activity) was added to the NADPH-generating system containing 50 mM Tris (pH=7.4) and DETAPAC (to prevent metal-catalyzed autooxidation) and inhibitor. Because rat liver cytosol has little CYP2A6 activity and high levels of aldehyde oxidase, 0.2 mg/incubation was used to quantitatively convert the nicotine iminium ion to cotinine. […] For initial evaluation of a large number of samples, [^3]H-nicotine was used in a TLC/radiometric format. […] Quantification of scrapped bands was by scintillation counting.

[5] = biological target: CYP2C9 (Homo sapiens (Human), UniProt P11712); experiment: CYP2C9 Vivid blue substrate O-dealkylation inhibition; type: biochemical
[6] = biological target: CYP2E1 (Homo sapiens (Human), UniProt P05181); experiment: CYP2E1 Vivid blue substrate O-dealkylation inhibition; type: biochemical
[7] = biological target: T1, human CYP2A6 (Homo sapiens (Human), UniProt P11509); conditions: for IC50: human, pH 7.5
[8] = biological target: CYP2D6 (Homo sapiens (Human), UniProt P10635); experiment: CYP2D6 Vivid blue substrate O-dealkylation inhibition; type: biochemical
[9] = biological target: CYP2B6 (Homo sapiens (Human), UniProt P20813); experiment: CYP2B6 Vivid blue substrate O-dealkylation inhibition; type: biochemical
[10] = biological target: Acetylcholine Binding Protein (Lymnaea stagnalis (Great pond snail) (Helix stagnalis), UniProt P58154); set-up: species or system Lymnaca stagnalis
[11] = Mouse liver microsome stability assay; conditions: for half-life at 40 μM: mouse, pH 7.4; for MLM t1/2: 40 μM test compound
Procedure: The residue was reconstituted in methanol (200 μL), centrifuged at 13,000 rpm for 5 min and the supernatant was analyzed by high-performance liquid chromatography with an Axxi-chrom (straight-phase) silica column (4.6 mm×250 mm, 5 μm) or with a Supelco (reverse-phase) HS F5 pentafluorophenyl column (4.6 mm×250 mm, 5 μm).

[12] = in vitro; conditions: human, microsomes, pH 7.4
[13] = biological target: P450 2A6dH (Homo sapiens (Human), UniProt P11509, INS494HHHH); experiment: Difference spectra of test compounds with N-terminal truncated CYP2A6; conditions: for λmax / λmin: difference spectrum; for binding type: difference spectrum with truncated CYP2A6
Procedure: Subsequently, test compound (in 100% ethanol, 10 μM) was added to both the cuvettes. The maximal ethanol concentration used was 2%. The difference spectra were obtained after the system reached equilibrium (3 min). All spectra were recorded at 25° C.

[14] = Human liver microsome stability assay; conditions: human liver microsomes; for half-life at 40 μM: human, pH 7.4
[15] = biological target: T1, human CYP2A6; experiment: CYP2A6 mediated coumarin 7-hydroxylation inhibition
[16] = biological target: CYP2C19 relative to CYP2A6 (Homo sapiens (Human), UniProt P33261); experiment: CYP2C19 Vivid blue substrate O-dealkylation inhibition; type: biochemical; conditions: human, recombinant CYP2C19 BACULOSOMES, pH 8, probe Vivid blue substrate (10 μM), O-dealkylation; read-out: 2C19/2A6 selectivity ratio (IC50 CYPX/IC50 CYP2A6)
[17] = biological target: CYP3A4 relative to CYP2A6 (Homo sapiens (Human), UniProt P08684); experiment: in vitro; conditions: human; for selectivity ratio at 30 min: pH 7.5
[18] = biological target: CYP2C9 relative to CYP2A6 (Homo sapiens (Human), UniProt P11712); experiment: CYP2C9 Vivid blue substrate O-dealkylation inhibition; type: biochemical; conditions: human, recombinant CYP2C9 BACULOSOMES, pH 8, probe Vivid blue substrate (10 μM), O-dealkylation; read-out: 2C9/2A6 selectivity ratio (IC50 CYPX/IC50 CYP2A6)
[19] = biological target: CYP2E1 relative to CYP2A6 (Homo sapiens (Human), UniProt P05181); experiment: CYP2E1 Vivid blue substrate O-dealkylation inhibition; type: biochemical; conditions: human, recombinant CYP2E1 BACULOSOMES, pH 8, probe Vivid blue substrate (10 μM), O-dealkylation; read-out: 2E1/2A6 selectivity ratio (IC50 CYPX/IC50 CYP2A6)
[20] = biological target: CYP2D6 relative to CYP2A6 (Homo sapiens (Human), UniProt P10635); experiment: CYP2D6 Vivid blue substrate O-dealkylation inhibition; type: biochemical; conditions: human, recombinant CYP2D6 BACULOSOMES, pH 8, probe Vivid blue substrate (10 μM), O-dealkylation; read-out: 2D6/2A6 selectivity ratio (IC50 CYPX/IC50 CYP2A6)
[21] = biological target: CYP2B6 relative to CYP2A6 (Homo sapiens (Human), UniProt P20813); experiment: CYP2B6 Vivid blue substrate O-dealkylation inhibition; type: biochemical; conditions: human, recombinant CYP2B6 BACULOSOMES, pH 8, probe Vivid blue substrate (5 μM), O-dealkylation; read-out: 2B6/2A6 selectivity ratio (IC50 CYPX/IC50 CYP2A6)
[22] = tested on: male Wistar rats; experiment: Nicotine self-administration in nicotine-addicted rats; type: in vivo, rat
[23] = biological target: T1, human CYP2A6; experiment: biochemical
[24] = biological target: T2, CYP2A13 (Homo sapiens (Human), UniProt Q16696); experiment: in vitro
[25] = biological target: mouse CYP2A5 (Mus musculus (Mouse), UniProt P20852); experiment: Inhibition of mouse CYP2A5; type: biochemical; conditions: read-out: IC50 mCYP2A5
[26] = biological target: T2, CYP2A13; experiment: Inhibition of human CYP2A13; conditions: human
[27] = tested on: NNK-dependent tumorigenesis in mice; conditions: mouse, in vivo; cited from earlier work
[28] = biological target: T2, CYP2A13; conditions: cited from earlier work
[29] = Table 4, unit inferred, read-out: 2E1 IC50 ± SD
[30] = Table 4, unit inferred, read-out: 2D6 IC50 ± SD
[31] = Table 4, unit inferred, read-out: 2C19 IC50 ± SD
[32] = Table 4, unit inferred, read-out: 2C9 IC50 ± SD
[33] = read-out: 2A6 IC50 ± SD, Table 4, unit not given (same data in Table 1 in μM)
[34] = Table 4, unit inferred, read-out: 2B6 IC50 ± SD
[35] = read-out: CYP2A6 IC50, coumarin 7-hydroxylation

Chain of CYP2C9 (P11712 whole entry): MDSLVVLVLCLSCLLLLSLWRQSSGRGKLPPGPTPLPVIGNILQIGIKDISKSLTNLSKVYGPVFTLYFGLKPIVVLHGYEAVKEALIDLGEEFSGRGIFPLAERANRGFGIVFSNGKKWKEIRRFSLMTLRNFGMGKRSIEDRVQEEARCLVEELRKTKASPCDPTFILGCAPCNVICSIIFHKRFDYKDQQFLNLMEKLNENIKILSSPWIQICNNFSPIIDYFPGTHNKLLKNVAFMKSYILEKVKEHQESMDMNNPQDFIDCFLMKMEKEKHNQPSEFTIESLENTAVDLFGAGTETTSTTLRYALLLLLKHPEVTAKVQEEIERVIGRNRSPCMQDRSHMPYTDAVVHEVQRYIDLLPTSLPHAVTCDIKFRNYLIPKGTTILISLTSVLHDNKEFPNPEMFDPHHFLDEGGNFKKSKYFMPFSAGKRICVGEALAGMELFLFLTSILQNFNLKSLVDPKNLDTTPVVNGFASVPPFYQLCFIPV
Chain of CYP2D6 (P10635 whole entry): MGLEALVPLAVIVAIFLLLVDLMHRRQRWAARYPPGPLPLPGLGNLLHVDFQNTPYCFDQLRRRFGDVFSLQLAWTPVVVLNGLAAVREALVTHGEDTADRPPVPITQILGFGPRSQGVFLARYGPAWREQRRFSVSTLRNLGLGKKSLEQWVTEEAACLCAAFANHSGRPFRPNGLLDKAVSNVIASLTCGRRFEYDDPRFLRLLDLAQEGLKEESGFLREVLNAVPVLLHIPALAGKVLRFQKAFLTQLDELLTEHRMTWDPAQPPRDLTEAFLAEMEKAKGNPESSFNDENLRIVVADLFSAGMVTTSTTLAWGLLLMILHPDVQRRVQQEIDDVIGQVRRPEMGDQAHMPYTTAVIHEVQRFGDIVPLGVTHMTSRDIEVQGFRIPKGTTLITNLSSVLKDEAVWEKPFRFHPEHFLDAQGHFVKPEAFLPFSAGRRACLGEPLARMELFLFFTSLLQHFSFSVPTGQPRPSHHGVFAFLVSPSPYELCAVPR
Chain of Acetylcholine Binding Protein (P58154 20-229 limits assumed): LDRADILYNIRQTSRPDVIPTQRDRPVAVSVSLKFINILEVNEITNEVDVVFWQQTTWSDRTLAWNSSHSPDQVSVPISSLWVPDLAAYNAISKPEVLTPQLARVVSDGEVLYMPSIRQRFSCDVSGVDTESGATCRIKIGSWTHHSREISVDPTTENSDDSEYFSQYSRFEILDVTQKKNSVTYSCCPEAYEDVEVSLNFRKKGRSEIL
Chain of Ach binding protein (AchBP) (P58154 20-229 limits assumed): as above
Chain of CYP2B6 (P20813 whole entry): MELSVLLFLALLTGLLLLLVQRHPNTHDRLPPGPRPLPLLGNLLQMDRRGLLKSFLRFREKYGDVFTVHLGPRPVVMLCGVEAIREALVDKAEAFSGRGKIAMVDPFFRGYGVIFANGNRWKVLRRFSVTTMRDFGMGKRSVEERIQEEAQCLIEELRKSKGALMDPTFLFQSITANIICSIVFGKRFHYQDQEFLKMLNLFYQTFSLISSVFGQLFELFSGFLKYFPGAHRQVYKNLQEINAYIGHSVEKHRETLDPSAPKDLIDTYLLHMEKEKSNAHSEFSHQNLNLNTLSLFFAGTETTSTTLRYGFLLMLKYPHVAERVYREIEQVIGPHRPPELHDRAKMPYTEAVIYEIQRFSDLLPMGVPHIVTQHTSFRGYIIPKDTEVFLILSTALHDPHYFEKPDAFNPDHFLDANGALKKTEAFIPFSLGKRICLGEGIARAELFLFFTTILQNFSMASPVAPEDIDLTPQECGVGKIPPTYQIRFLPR
Chain of P450 2A6dH (P11509 other isoform, or with tags, fused parts or gaps 1-28 replaced by MAKKTS/ins HHHH behind 494): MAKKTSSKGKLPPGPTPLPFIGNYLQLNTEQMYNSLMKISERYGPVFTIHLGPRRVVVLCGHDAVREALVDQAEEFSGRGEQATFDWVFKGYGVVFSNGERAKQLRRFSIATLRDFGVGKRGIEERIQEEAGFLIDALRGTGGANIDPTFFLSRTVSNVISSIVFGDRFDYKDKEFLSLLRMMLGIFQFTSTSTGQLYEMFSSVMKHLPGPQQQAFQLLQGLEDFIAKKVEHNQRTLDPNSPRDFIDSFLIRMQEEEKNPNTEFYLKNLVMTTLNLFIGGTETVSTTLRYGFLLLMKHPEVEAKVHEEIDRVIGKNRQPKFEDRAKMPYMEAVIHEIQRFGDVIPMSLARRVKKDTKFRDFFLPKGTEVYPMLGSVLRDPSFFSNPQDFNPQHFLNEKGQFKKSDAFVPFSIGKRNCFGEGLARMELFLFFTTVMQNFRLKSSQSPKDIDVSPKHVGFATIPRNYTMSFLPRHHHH
T2 sequence (Q16696 whole entry): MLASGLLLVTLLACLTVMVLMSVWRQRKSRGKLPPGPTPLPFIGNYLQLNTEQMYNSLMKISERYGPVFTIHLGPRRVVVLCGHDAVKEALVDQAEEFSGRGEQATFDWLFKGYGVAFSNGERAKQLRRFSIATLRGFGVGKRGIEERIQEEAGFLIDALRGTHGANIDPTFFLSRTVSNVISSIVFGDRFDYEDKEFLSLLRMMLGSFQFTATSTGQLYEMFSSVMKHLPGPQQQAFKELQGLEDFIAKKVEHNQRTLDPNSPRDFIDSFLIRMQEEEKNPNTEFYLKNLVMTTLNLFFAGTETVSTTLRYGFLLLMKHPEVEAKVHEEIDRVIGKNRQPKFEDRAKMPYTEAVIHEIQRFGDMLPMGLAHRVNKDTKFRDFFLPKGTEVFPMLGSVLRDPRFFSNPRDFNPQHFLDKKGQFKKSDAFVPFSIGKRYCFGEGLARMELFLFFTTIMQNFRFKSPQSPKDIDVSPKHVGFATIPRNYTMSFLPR
T1 sequence (P11509 whole entry): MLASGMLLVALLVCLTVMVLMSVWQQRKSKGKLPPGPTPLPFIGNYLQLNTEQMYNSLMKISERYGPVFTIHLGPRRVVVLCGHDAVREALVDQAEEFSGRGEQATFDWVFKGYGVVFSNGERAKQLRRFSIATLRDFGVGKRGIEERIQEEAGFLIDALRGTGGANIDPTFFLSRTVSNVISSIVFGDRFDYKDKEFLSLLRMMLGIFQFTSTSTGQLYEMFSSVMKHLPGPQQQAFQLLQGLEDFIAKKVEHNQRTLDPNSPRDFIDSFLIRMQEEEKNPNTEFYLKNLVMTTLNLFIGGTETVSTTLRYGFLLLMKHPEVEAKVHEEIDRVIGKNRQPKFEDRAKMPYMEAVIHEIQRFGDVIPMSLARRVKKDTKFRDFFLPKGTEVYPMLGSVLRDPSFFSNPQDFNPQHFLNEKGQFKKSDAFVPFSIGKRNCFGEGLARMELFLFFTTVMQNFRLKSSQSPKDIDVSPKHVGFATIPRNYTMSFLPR
Chain of Microsomal Human CYP2A6 (P11509 whole entry): as above
Chain of CYP2E1 (P05181 whole entry): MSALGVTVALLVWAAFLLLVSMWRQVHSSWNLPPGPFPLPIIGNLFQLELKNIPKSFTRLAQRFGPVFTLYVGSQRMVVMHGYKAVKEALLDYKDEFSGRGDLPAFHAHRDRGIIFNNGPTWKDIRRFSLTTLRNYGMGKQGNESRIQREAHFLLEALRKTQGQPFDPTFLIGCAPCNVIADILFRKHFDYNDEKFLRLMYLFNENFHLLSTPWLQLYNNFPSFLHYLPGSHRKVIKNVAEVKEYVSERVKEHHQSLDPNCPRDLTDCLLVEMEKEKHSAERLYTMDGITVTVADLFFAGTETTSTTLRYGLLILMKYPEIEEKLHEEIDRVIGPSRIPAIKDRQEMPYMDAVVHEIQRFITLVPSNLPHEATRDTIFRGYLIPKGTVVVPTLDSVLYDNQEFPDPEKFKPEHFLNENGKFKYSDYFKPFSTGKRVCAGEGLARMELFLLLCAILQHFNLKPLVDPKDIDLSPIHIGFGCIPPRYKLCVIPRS
Chain of CYP3A4 (P08684 whole entry): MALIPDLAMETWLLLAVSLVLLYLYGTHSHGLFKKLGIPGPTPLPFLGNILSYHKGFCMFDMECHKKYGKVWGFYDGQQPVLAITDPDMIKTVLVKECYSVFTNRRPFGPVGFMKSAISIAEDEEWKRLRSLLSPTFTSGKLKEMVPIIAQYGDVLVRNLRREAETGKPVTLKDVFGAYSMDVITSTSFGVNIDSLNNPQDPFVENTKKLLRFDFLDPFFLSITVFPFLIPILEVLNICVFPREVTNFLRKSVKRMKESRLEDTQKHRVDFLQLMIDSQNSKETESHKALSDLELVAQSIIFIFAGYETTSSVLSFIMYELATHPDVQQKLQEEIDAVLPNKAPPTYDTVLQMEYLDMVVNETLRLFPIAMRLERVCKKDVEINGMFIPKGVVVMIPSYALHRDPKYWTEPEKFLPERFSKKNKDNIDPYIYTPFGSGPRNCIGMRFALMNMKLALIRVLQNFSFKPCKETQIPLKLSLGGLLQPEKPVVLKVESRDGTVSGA
Chain of CYP3A4 relative to CYP2A6 (P08684 whole entry): as above
Chain of CYP2C19 (P33261 whole entry): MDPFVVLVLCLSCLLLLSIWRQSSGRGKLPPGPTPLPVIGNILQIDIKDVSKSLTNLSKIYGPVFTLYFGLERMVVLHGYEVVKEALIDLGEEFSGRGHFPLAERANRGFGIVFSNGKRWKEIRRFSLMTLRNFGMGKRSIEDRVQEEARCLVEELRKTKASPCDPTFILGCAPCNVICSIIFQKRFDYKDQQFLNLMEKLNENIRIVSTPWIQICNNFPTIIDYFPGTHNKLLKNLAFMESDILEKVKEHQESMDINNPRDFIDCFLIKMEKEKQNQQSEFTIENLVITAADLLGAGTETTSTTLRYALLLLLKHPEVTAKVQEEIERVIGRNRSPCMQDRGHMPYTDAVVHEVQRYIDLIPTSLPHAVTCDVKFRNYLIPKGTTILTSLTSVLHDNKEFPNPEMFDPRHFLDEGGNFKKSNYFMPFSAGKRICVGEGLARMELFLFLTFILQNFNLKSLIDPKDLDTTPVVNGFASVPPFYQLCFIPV
Chain of CYP2D6 relative to CYP2A6 (P10635 whole entry): as the sequence (P10635 whole entry) above
Chain of CYP2B6 relative to CYP2A6 (P20813 whole entry): as the sequence (P20813 whole entry) above
Chain of CYP2E1 relative to CYP2A6 (P05181 whole entry): as the sequence (P05181 whole entry) above

NCC1CCC(c2cccnc2)O1 (racemic) [Compound 38]
Selectivity ratio (IC50 CYPX/IC50 CYP2A6) 2C19/2A6 ([1]; human CYP2C19 versus human CYP2A6): 62
IC50 ([1]; read-out: IC50 ± SD 2C19, insect cell microsomes expressing CYP2C19, 0.2M potassium phosphate buffer, mean of at least 3 determinations ± SD): 233 ± 21 µM
IC50 ([2]; human, microsomes, pH 7.5): 77.5 ± 14.6 µM
Selectivity ratio (IC50 CYPX/IC50 CYP2A6) 3A4/2A6 ([2]; human, pH 7.5): 21
binding to the AchBP (in words) [3]: modest binding avidity
AchBP [3]: +
IC50 [4]: 5.21 ± 1.68 µM
Selectivity ratio (IC50 CYPX/IC50 CYP2A6) 2C9/2A6 ([5]; human CYP2C9 versus human CYP2A6): 56
IC50 ([5]; read-out: IC50 ± SD 2C9, insect cell microsomes expressing CYP2C9, 0.2M potassium phosphate buffer, mean of at least 3 determinations ± SD): 208 ± 21 µM
Selectivity ratio (IC50 CYPX/IC50 CYP2A6) 2E1/2A6 ([6]; human CYP2E1 versus human CYP2A6): 21
IC50 ([6]; read-out: IC50 ± SD 2E1, insect cell microsomes expressing CYP2E1, 0.2M potassium phosphate buffer, mean of at least 3 determinations ± SD): 77.5 ± 14.6 µM
CYP2A6 inhibition (in words) [7]: significantly diminished
Selectivity ratio (IC50 CYPX/IC50 CYP2A6) 2D6/2A6 ([8]; human CYP2D6 versus human CYP2A6): 53
IC50 ([8]; read-out: IC50 ± SD 2D6, insect cell microsomes expressing CYP2D6, 0.2M potassium phosphate buffer, mean of at least 3 determinations ± SD): 197 ± 21 µM
Selectivity ratio (IC50 CYPX/IC50 CYP2A6) 2B6/2A6 ([9]; human CYP2B6 versus human CYP2A6): 69
IC50 ([9]; read-out: IC50 ± SD 2B6, insect cell microsomes expressing CYP2B6, 0.2M potassium phosphate buffer, mean of at least 3 determinations ± SD): 256 ± 29 µM

NC1CC1c1cccnc1 (centres unmarked) [2-(pyridin-3-yl)cyclopropanamine]
% of Control [10]: 8%

NCc1ccc(-c2cccnc2)o1 [(5-(pyridin-3-yl)furan-2-yl)methanamine]
% of Control [10]: 20%

NCc1ccc(-c2cccnc2)s1 [Compound 1a]
half-life at 40 μM ([11]; microsomes): 1 h
half-life [12]: 0.65 h
IC50 [6, 29]: 40.2 ± 18.1 µM
λmax [13]: 428 nm
λmin [13]: 409 nm
binding type [13]: Type II
IC50 [8, 30]: 169 ± 17 µM

CNCc1ccc(-c2cccnc2)s1 [Compound 1b]
MLM t1/2 ([11]; mouse liver microsomes): Stable^a
IC50 [1, 31]: 59.8 ± 6.5 µM
IC50 [2]: > 400 µM
IC50 [5, 32]: 67.7 ± 3.7 µM
IC50 [6, 29]: > 400 µM
half-life at 40 μM [14]: 1.6 h
λmax [13]: 430 nm
λmin [13]: 410 nm
binding type [13]: Type II
IC50 [15, 33]: 1.1 ± 0.13 µM
IC50 [8, 30]: 113 ± 19 µM
IC50 [9, 34]: > 400 µM

CN(C)Cc1ccc(-c2cccnc2)s1 [Compound 1c]
half-life at 40 μM ([11]; mouse liver microsomes): 5.72 h
IC50 [1, 31]: 106 ± 18 µM
selectivity ratio at 40 min [16]: 0.8
IC50 [2]: 219 ± 23 µM
selectivity ratio at 30 min [17]: 1.6
IC50 [5, 32]: 206 ± 23 µM
selectivity ratio at 40 min [18]: 1.5
selectivity ratio at 40 min [19]: > 3
IC50 [6, 29]: > 400 µM
HLM t1/2 ([14]; 40 μM test compound): Stable^a
λmax [13]: 428 nm
λmin [13]: 411 nm
binding type [13]: Type II
IC50 [15, 33]: 133 ± 21 µM
IC50 [8, 30]: 28.7 ± 4.1 µM
selectivity ratio at 40 min [20]: 0.2
IC50 [9, 34]: > 400 µM
selectivity ratio at 40 min [21]: > 3

NCc1ccc(-c2cccnc2)o1 [Compound 2]
selectivity ratio at 30 min [17]: 174
CYP2A6 inhibition (in words) [7]: significant inhibition
IC50 [7]: 0.268 ± 0.021 µM
in vivo activity against nicotine self-administration (in words) ([22]; nicotine addicted rats): significant in vivo activity
decrease of nicotine self-administration ([22]; rat, day 50, dihydrochloride salts in sterile saline, compound 2 16 mg/kg, compound 14 15 mg/kg): 70%

CNCc1ccc(-c2cccnc2)o1 [Compound 2b]
MLM t1/2 ([11]; mouse liver microsomes): Stable^a
IC50 [1, 31]: 30.6 ± 4.1 µM
selectivity ratio at 40 min [16]: 19
IC50 [2]: > 400 µM
selectivity ratio at 30 min [17]: > 250
IC50 [5, 32]: 76.1 ± 9.1 µM
selectivity ratio at 40 min [18]: 48
selectivity ratio at 40 min [19]: > 250
IC50 [6, 29]: > 400 µM
half-life at 40 μM [14]: 1.1 h
λmax [13]: 431 nm
λmin [13]: 411 nm
binding type [13]: Type II
IC50 [15, 33]: 1.6 ± 0.34 µM
IC50 [8, 30]: 90.6 ± 7.8 µM
selectivity ratio at 40 min [20]: 57
IC50 [9, 34]: 358 ± 22 µM
selectivity ratio at 40 min [21]: 224

BrCC1CCC(c2cccnc2)O1 (centres unmarked) [Compound 32]
IC50 [4]: 0.36 ± 0.18 µM

O/N=C/c1ccc(-c2cccnc2)o1 [Compound 39]
IC50 [23]: 9.75 ± 0.91 µM
IC50 ([2]; human, pH 7.5): > 400 µM

CCC1CCC(c2cccnc2)O1 (centres unmarked) [Compound 44]
IC50 [4]: 0.02 ± 0.02 µM
inhibition of microsomal nicotine oxidase (in words) [4]: quite potent
IC50 [15, 35]: 13.6 ± 3.48 µM

CN1CCCC1c1cccnc1 (centres unmarked) [Compound 54, Nicotine]
Ki [23]: 4.4 ± 0.6 µM

CN1CCCC1c1cccnc1 (centres unmarked) [Compound 54]
IC50 [23]: 26.3 ± 3.4 µM
IC50 [2]: 142 ± 15.7 µM
selectivity ratio ([17]; pH 7.5, Selectivity Ratio: IC50 (Inhibition of CYP3A4)/IC50 (Inhibition of CYP2A6)): 5

OCC1CCC(c2cccnc2)O1 (centres unmarked) [Compound 69]
binding to the AchBP (in words) [3]: non-binders
AchBP [3]: −
IC50 [15, 35]: 61.4 ± 17.7 µM

c1cncc(-c2ccsc2)c1 [TD-I-145]
inhibition at 1 µM [24]: 12%
IC50 [7]: 1.37 ± 0.23 µM
IC50 [25]: 0.8 µM

NCc1ccc(-c2cccnc2)o1 [TD-II-063]
inhibition at 1 µM [24]: 29%
IC50 [25]: 0.6 µM

O/N=C/c1ccc(-c2cccnc2)o1 [TD-II-065 ESP trans isomer]
inhibition at 1 µM [24]: 41%
IC50 [7]: 4.24 ± 0.49 µM

CNCC#Cc1cccnc1 [TD-IV-091 41]
inhibition at 1 µM [24]: 2%

CC(=O)SCc1ccc(-c2cccnc2)o1 [TD-V-099]
IC50 [23]: 1.8 ± 0.3 µM
inhibition at 1 µM [26]: 13%

c1cncc(-c2ccc(CNCc3ccc(-c4cccnc4)s3)s2)c1 [bis((5-(pyridin-3-yl)thiophen-2-yl)methyl)amine]
% of Control [10]: 10%

COc1c2occc2cc2ccc(=O)oc12 [methoxsalen (9-methoxypsoralen), 9-methoxypsoralen]
NNK-dependent tumorigenesis in mice (in words) [27]: strongly inhibited

COc1c2occc2cc2ccc(=O)oc12 [methoxypsoralen (8-methoxypsoralen), 8-methoxypsoralen]
Ki [28]: 0.11 µM
